Measured values from patent US20080312261A1, “4- (4-Bromo-2-Fluoroanilino) -6- Methoxy-7- (1-Methylpiperidin-4-Ylmethoxy) Quinazoline Monohydrate” (priority 2005, published 2008).
Like-named read-outs stand apart in the source and are kept apart here.

Key:
[1] = system: human umbilical vein endothelial cells (HUVEC); conditions: as disclosed in WO 01/32651, cited from earlier work
[2] = system: CaLu-6 tumour xenografts; conditions: 50 mg/kg, orally once daily; CaLu-6 xenografts in mice; p<0.001 (Mann-Whitney Rank Sum Test); cited from earlier work
[3] = system: femoral epiphyseal growth plates; conditions: 100 mg/kg/day in female rats, 14 days oral; p<0.001 (one-tailed Students' t-test); cited from earlier work
[4] = Dynamic Vapour Sorption (DVS) analysis; format: physicochemical; conditions: for kinetic stability: on the DVS timescale
Experimental: Analytical Instrument: Surface Measurements Systems Dynamic Vapour Sorption Analyser, calibrated with a saturated salt solution, such as sodium chloride.
About 5 mg of material contained in a quartz holder at a specified temperature was subjected to humidified nitrogen at a flow rate of 200 ml/minute of nitrogen at the following relative humidities (RH): 0, 20, 40, 60, 80, 95, 80, 60, 40, 20, 0% RH in duplicate.
The weight of the material at a particular relative humidity was constantly monitored using an in-situ balance until it was stable according to a weight criteria of 0.002% weight change per minute averaged over 10 minutes. If the weight was still changing then it stayed at a particular relative humidity until the weight was stable (up to a maximum time of 12 hours).

Structure (SMILES)	IC50 ([1]; EGF-stimulated HUVEC proliferation, read-out: EGF IC50) [nM]	IC50 ([1]; VEGF-stimulated HUVEC proliferation, read-out: VEGF IC50) [nM]	IC50 ([1]; basal HUVEC proliferation, read-out: Basal IC50) [nM]	inhibition of tumour growth [2] [%]	increase in epiphyseal growth plate hypertrophy [3] [%]	hygroscopicity by DVS ([4]; 25° C.)	water absorbed ([4]; at 95% relative humidity, 25° C.) [% weight/weight]	kinetic stability [4]	rate of weight loss on storage ([4]; 0% relative humidity at 25° C., once surface moisture has been removed)	rate of weight loss on storage ([4]; 0% relative humidity at 40° C.)	conversion to the anhydrous form of ZD6474 during drying ([4]; 25° C. and 0% relative humidity)
COc1cc2c(Nc3ccc(Br)cc3F)ncnc2cc1OCC1CCN(C)CC1 [ZD6474, 4-(4-bromo-2-fluoroanilino)-6-methoxy-7-(1-methylpiperidin-4-ylmethoxy)quinazoline]	170	60	> 3000	78	75						
COc1cc2c(Nc3ccc(Br)cc3F)ncnc2cc1OCC1CCN(C)CC1 [ZD6474 anhydrous, 4-(4-bromo-2-fluoroanilino)-6-methoxy-7-(1-methylpiperidin-4-ylmethoxy)quinazoline]						non-hygroscopic	0.63	kinetically stable			
COc1cc2c(Nc3ccc(Br)cc3F)ncnc2cc1OCC1CCN(C)CC1 [ZD6474 monohydrate, 4-(4-bromo-2-fluoroanilino)-6-methoxy-7-(1-methylpiperidin-4-ylmethoxy)quinazoline]						non-hygroscopic		kinetically stable	extremely slow	surprisingly slow	less than 5%
